We go through 2 compounds from publication PMC4286191 (MedChemComm, 2014).

The target in data set [1] is purified recombinant LSD1 (Homo sapiens, UniProt O60341). As to the kind of experiment: Fluorescence-based recombinant LSD1 inhibition assay. As to conditions: residual activity at 10 μM; average of 3 determinations ± SEM; Table 2. The format is biochemical.
The subject of data set [2] is CA46 Burkitt's lymphoma. Nature of the data set: Cytotoxicity in CA46. The format is cell-based.
For data set [3], the system named is MCF-10A human breast epithelial cell line. As to the kind of experiment: Cytotoxicity in MCF-10A. The format is cell-based.

As to `N=C(NCCCNCCCCCCCNCCCNC(=N)NC(=N)NCCC(c1ccccc1)c1ccccc1)NC(=N)NCCC(c1ccccc1)c1ccccc1` [Compound 2, verlindamycin], in data set [1], the “% LSD1 Activity (10μM)” value was 33.9 ± 6.7%.

Take `COc1ccccc1CNc1n[nH]c(NCc2ccccc2OC)n1` [Compound 7, N^3,N[5]-bis(2-methoxybenzyl)-1H-1,2,4-triazole-3,5-diamine]: in data set [2], the “Cytotoxicity in CA46” value is “no significant cytotoxicity”. Also, the “Cytotoxicity in MCF-10A” value in data set [3] is on record as “no significant cytotoxicity”.
